The values below come from patent US5817689A, “Indole derivatives having a 2-phenyl-ethanolamino-substituted lower alkyl group at the 2-or 3-position thereof” (priority 1994, dated 1998).

Structures can show the parent of a compound that is named as a salt. Where two headings read alike, the source gives them in different places.

The target in assay [1] is T1, human β2 -adrenergic receptor (Homo sapiens, UniProt P07550).
T1 construct: expressed in transfected cells; host or cells: CHO-K1, clone CHO/pKREX21-8
T1 sequence (P07550 whole entry): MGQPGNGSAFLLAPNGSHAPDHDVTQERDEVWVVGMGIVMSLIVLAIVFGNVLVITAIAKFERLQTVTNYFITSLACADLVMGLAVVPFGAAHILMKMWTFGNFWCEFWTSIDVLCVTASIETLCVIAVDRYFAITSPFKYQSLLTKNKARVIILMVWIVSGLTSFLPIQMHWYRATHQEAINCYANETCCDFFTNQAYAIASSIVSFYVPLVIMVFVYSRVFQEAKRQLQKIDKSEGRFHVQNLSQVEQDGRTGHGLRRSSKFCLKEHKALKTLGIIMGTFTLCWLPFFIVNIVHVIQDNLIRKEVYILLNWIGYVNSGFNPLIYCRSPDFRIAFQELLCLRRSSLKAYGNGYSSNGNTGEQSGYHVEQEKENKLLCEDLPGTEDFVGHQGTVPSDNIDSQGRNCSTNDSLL
Nature of the assay: Human β2-adrenergic receptor-stimulating activity (cAMP accumulation in CHO/pKREX21-8 cells). In kind it is cell-based. To be noted: for Emax: read-out: I.A. value β2 -receptor; for I.A. value β2 -receptor: intrinsic activity: maximal cAMP response relative to 10^-5 M (-)-isoproterenol = 100%. An excerpt: cDNA was synthesized with Poly(A)^+ RNA derived from human brain (Clontech: trade number; CL6516-1) by using SuperScript Systems (Life Technologies).
After the reaction mixture was digested with restriction endonucleases Sse8387I and HindIII, about 1.4 kbp fragment was isolated by electrophoresis. This fragment was ligated with expression vector pKCN1 digested with restriction endonucleases Sse8387I and HindIII, and was introduced into E. coli HB101 in a conventional manner. Plasmid DNA was prepared from the selected transformant, and the nucleotide sequence of the about 1.4 kbp fragment obtained by digestion of this plasmid DNA with restriction endonucleases Sse8387I and HindIII was determined. […] This plasmid was named as pKREX21 for highly expressing human β2 -adrenergic receptor, and was introduced into CHO-K1 in the same manner as the method of establishment of the cell line highly expressing human β3 -adrenergic receptor.
(§1) Experiment 1 Human β-adrenergic receptor-stimulating activity:
(§2) The cells were peeled off by incubation with phosphate-buffered saline containing 0.5 mM EDTA at 37° C. for 10 minutes after the medium was removed. The CHO/pKREX10-36 cells were collected by centrifugation, and suspended in Hanks' balanced salts (ICN Biomedicals) containing 1 mM L-ascorbic acid and 1 mM 3-isobutyl-1-methylxanthine at the concentration of about 2×10^6cells/ml. This suspension (100μl) and a test compound were mixed in the same balanced salt (500 μl) and incubated at 37° C. for 30 minutes, followed by boiling for 5 minutes to terminate the reaction. After centrifugation of the reaction mixture, the amount of cAMP in the supernatant was measured by using cAMP EIA System (Amersham).
Similarly, the amount of cAMP was measured by using CHO/pKREX21-8 for highly expressing human β2 -adrenergic receptor instead of the CHO/pKREX10-36 for highly expressing human β3 -adrenergic receptor.
A general note: cAMP levels reflect the balance of adenylyl cyclase and phosphodiesterase activity.

Assay [2] concerns the target T2, human β3 -adrenergic receptor (Homo sapiens, UniProt P13945).
T2 construct: expressed in transfected cells; host or cells: CHO-K1 (ATCC CCL 61), clone CHO/pKREX10-36
As to the kind of experiment: Human β3-adrenergic receptor-stimulating activity (cAMP accumulation in CHO/pKREX10-36 cells). In kind it is cell-based. Conditions: for Ratio of EC50 β2 /β3: ratio of EC50 β2-receptor to EC50 β3-receptor; for Emax: read-out: I.A. value β3 -receptor; for stimulating activity of human β3 -adrenergic receptor (in words): conclusion from Table 5. The procedure: Establishment of the cell line highly expressing human β3 -adrenergic receptor
Separately, another expression vector for animal cells, pSV2-neo [Southern and Berg, J. Mol. Appl. Genet. […] These DNAs were ligated with DNA Ligation Kit (Takara Shuzo Co., Ltd.) and were introduced into E. coli HB101 in a conventional manner to give the transformants. Plasmid DNAs were prepared from the transformants and digested with a restriction endonuclease PstI. A clone which produced about 3.8 kbp, 2.2 kbp, 1.4 kbp, and 0.9 kbp fragments was selected to give a plasmid named pKCN0.
The reaction mixture was used for transformation of E. coli HB101 and plasmid DNAs were prepared from the selected transformants. The plasmid DNAs were digested with restriction endonucleases DraI and HindIII, and a clone which produced about 430 bp fragment was selected to give a plasmid named pKCN1 for expression vector.
10% Dimethyl sulfoxide was added to the reaction mixture at the PCR reaction.
After the reaction mixture was digested with restriction endonucleases Sse8387I and StuI, about 1.3 kbp fragment was isolated by electrophoresis. This fragment was ligated with expression vector pKCN1 which was digested with restriction endonucleases Sse8387I and EcoRV, and the resultant was introduced into E. coli HB101 in a conventional manner. Plasmid DNA was prepared from the selected transformant and the nucleotide sequence of the about 1.3 kbp fragment obtained by digestion of the plasmid DNA with restriction endonucleases Sse8387I and XhoI was determined. […] This plasmid for expressing human β3 -adrenergic receptor was named as pKREX10.
The reaction mixture was filtered with glass filter GF/C (Whatman) presoaked with 0.3% polyethyleneimine and washed by using BIO-DOT apparatus (Bio-Rad Laboratories), and the radioactivity on the filter was counted by γ-ray counter. […] Establishment of the cell line highly expressing human β2 -adrenergic receptor
as §1, §2

The test system of assay [3] is glucose level in the blood. As to the kind of experiment: Blood glucose reducing activity on fasted mouse. In kind it is in vivo, ddY male mouse. Conditions: 3 h, read-out: Blood glucose reducing activity (ED25). On the procedure:
Experiment 2 Blood glucose reducing activity on fasted mouse:
A test compound suspended in 0.5% tragacanth solution was orally administered to a ddY male mouse (weight: 20-30 g) under being fasted, and the blood was collected before and at three hours after the administration of the test compound. The glucose level in the blood was determined by the method of Kunst A., et al. (Hexokinase/G6PDH method) [Bergmeyer, H. U. (eds.), […], vol. VI, 3rd edition, Verlag Chemie GmbH, Weinheim·Deerfield Beach, Florida·Basel, 163-172 (1984)]. The blood glucose reducing activity of the test compound was expressed by ED25 value which is a concentration of the test compound required to reduce the glucose level in blood before the administration of the test compound by 25%. Gliclazide was used as a reference compound which is a commercially available drug for treatment of diabetes mellitus.

[4] abbreviates: 50% of cAMP accumulation, CHO/pKREX10-36, 37° C., 30 minutes, read-out: EC50 value β3 -receptor.
[5] abbreviates: 25% reduction of blood glucose, fasted ddY male mice, oral, three hours after administration.

T2 sequence (P13945 whole entry): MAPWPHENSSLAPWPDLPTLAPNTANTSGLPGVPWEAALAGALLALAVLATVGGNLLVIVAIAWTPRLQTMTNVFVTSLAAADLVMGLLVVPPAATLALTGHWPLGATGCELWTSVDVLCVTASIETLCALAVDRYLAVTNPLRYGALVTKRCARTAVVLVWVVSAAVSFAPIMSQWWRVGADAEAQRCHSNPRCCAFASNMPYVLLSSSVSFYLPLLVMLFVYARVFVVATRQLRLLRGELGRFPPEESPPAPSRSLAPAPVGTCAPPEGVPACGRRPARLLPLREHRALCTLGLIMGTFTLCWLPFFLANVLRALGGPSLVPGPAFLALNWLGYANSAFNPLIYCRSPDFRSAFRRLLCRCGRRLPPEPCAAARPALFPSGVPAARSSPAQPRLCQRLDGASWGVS

On to `COC(=O)COc1ccc2c(CC(C)NCC(O)c3cccc(Cl)c3)c[nH]c2c1` (centres unmarked) [Example 7], for which, in assay [1], the EC50 was found to be 0.033 µM and the Emax was determined as 15%. In addition, in assay [2], the EC50 stood at 0.025 µM, the “Ratio of EC50 β2 /β3” value is reported as 1.3 and the Emax was 76%. For the same compound, in assay [3] (po), the ED25 came out at 1.5 mg/kg.

On to `COC(=O)COc1cccc2c(CC(C)NC[C@H](O)c3cccc(Cl)c3)c[nH]c12` (stereo partly drawn) [Example 14, 2-[3-(7-methoxycarbonylmethoxyindol-3-yl)-2-propylamino]-(1R)-1-(3-chlorophenyl)ethanol], for which, in assay [1], the concentration giving a half-maximal response (EC50) amounted to 0.006 µM and the Emax is 29%. In assay [2], the midpoint of the response, the EC50, lay at 0.00043 µM; the “stimulating activity of human β3 -adrenergic receptor (in words)” value (shortened to “stimulating activity of human β3”) is on record as “potent stimulating activity of human β3 -adrenergic receptor”; the “Ratio of EC50 β2 /β3” value is 14.0; the Emax is 95%. Besides, the “adrenoceptor selectivity for human β3 -adrenergic receptor (in words)” value in assay [2] (β3 versus β2, conclusion from Table 5) is on record as “excellent adrenoceptor selectivity for human β3 -adrenergic receptor”.

In the case of `COc1ccc2c(CC(C)NCC(O)c3cccc(Cl)c3)c[nH]c2c1OC` (centres unmarked) [Example 12], in assay [1], the EC50 was determined as 0.031 µM and the Emax was found to be 13%. Further, in assay [2], a half-maximal response (EC50) required 0.004 µM, the “Ratio of EC50 β2 /β3” value worked out at 7.8 and the Emax worked out at 98%.

Regarding `O=[N+]([O-])c1cccc(C(O)CNCCc2c[nH]c3ccccc23)c1` (centres unmarked) [Compound C, reference compound], the “I.A. value β2 -receptor” value in assay [1] was determined as 5%. Also, the EC50 in assay [2] (setting [4]) worked out at 0.54 µM. For the same compound, in assay [2], the “stimulating activity of human β3” value is on record as “quite weak human β3 -adrenergic receptor-stimulating activity” and the Emax was found to be 105%.

With `Cc1cccc2c(CC(C)NCC(O)c3cccc(Cl)c3)c[nH]c12` (centres unmarked) [Example 6], in assay [1], the EC50 was 0.088 µM and the Emax is 19%. Moreover, in assay [2], the EC50 stood at 0.035 µM, the “Ratio of EC50 β2 /β3” value is 2.5 and the Emax was 91%. Also, in assay [3] (po), the ED25 is 4.5 mg/kg.

With `COc1ccc2c(CC(C)NCC(O)c3cccc(Cl)c3)c[nH]c2c1` (centres unmarked) [Example 3], the 50% effective concentration (EC50) in assay [1] amounted to 0.17 µM; in assay [2] (setting [4]), 0.022 µM. Besides, the Emax in assay [1] was determined as 22%; in assay [2], 102%. In addition, the ED25 in assay [3] (po) worked out at 3.3 mg/kg.

For the compound `CCOc1cccc2c(CC(C)NC[C@H](O)c3cccc(Cl)c3)c[nH]c12` (stereo partly drawn) [Example 2-A, 2-[3-(7-ethoxyindol-3-yl)-2-propylamino]-(1R)-1-(3-chlorophenyl)ethanol], the figures for the EC50 in assay [1] and in assay [2] (setting [4]) were 0.015 µM and 0.00096 µM, respectively. Moreover, the results for the Emax in assay [1] and in assay [2] were 23% and 96%, respectively.

With `CC(C)NC[C@H](O)c1ccc(O)c(O)c1` [IP, (-)Isoproterenol, reference compound], the “I.A. value β3 -receptor” value in assay [2] (intrinsic activity: maximal cAMP response relative to 10^-5 M (-)-isoproterenol = 100%) stood at 100%.

Turning to `CCOc1cccc2c(CC(C)NCC(O)c3cccc(Cl)c3)c[nH]c12` (centres unmarked) [Example 2, 2-[3-(7-ethoxyindol-3-yl)-2-propylamino]-1-(3-chlorophenyl)ethanol], in assay [1], it took 0.055 µM to reach a half-maximal effect (EC50) and the Emax amounted to 31%. Moreover, in assay [2], the EC50 came out at 0.002 µM, the “stimulating activity of human β3” value was “potent stimulating activity of human β3 -adrenergic receptor” and the Emax came out at 117%. In assay [3] (po), the ED25 is 0.03 mg/kg.

Regarding `CC(Cc1c[nH]c2c(OCc3ccccc3)cccc12)NCC(O)c1cccc(Cl)c1` (centres unmarked) [Example 4], in assay [1], the EC50 is 0.043 µM and the Emax was found to be 36%. For the same compound, in assay [2], the EC50 worked out at 0.016 µM, the “Ratio of EC50 β2 /β3” value is recorded as 2.7 and the Emax was 116%.

For `OC(CNCCc1c[nH]c2ccccc12)c1ccccc1` (centres unmarked) [Compound B, reference compound], the “I.A. value β2 -receptor” value in assay [1] is 8%. For the same compound, the EC50 in assay [2] (setting [4]) turned out to be 0.18 µM. Moreover, in assay [2], the “stimulating activity of human β3” value was “quite weak human β3 -adrenergic receptor-stimulating activity” and the Emax worked out at 100%.

For the compound `CC(Cc1c[nH]c2cc(OCC(=O)O)ccc12)NCC(O)c1cccc(Cl)c1` (centres unmarked) [Example 13, 2-[3-(6-carboxymethoxyindol-3-yl)-2-propylamino]-1-(3-chlorophenyl)ethanolsodium salt], in assay [1], the “I.A. value β2 -receptor” value worked out at 6%. Besides, in assay [2], the response was half-maximal at 0.031 µM (EC50) and the Emax turned out to be 101%.

With `COC(=O)c1ccc2c(CC(C)NCC(O)c3cccc(Cl)c3)c[nH]c2c1` (centres unmarked) [Example 8], in assay [1], the “I.A. value β2 -receptor” value is 5%. Moreover, in assay [2], the EC50 was determined as 0.031 µM and the Emax is 92%. Further, the ED25 in assay [3] (po) worked out at 1.4 mg/kg.

On to `Cc1cccc2[nH]cc(CC(C)NCC(O)c3cccc(Cl)c3)c12` (centres unmarked) [Example 10], for which the ED25 in assay [3] (setting [5]) worked out at 0.1 mg/kg.

With `Cc1ccc(S(=O)(=O)NC(=O)NN2CC3CCCC3C2)cc1` (centres unmarked) [Gliclazide, reference compound], in assay [3] (setting [5]), the ED25 was found to be 0.87 mg/kg.

Take `OC(CNCCc1c[nH]c2ccc(Cl)cc12)c1ccccc1` (centres unmarked) [Compound A, reference compound]: the EC50 in assay [1] (50% of cAMP accumulation, CHO/pKREX21-8, 37° C., 30 minutes, read-out: EC50 value β2 -receptor) turned out to be 0.41 µM. The Emax in assay [1] is 16%. The EC50 in assay [2] (setting [4]) was found to be 0.91 µM. Further, in assay [2], the “stimulating activity of human β3” value was “quite weak human β3 -adrenergic receptor-stimulating activity”, the “Ratio of EC50 β2 /β3” value is on record as 0.5 and the Emax worked out at 92%.

In the case of `COc1cccc2c(CC(C)NC[C@H](O)c3cccc(Cl)c3)c[nH]c12` (single isomer, unassigned) [Example 1-A-b, 2-[(2S or 2R)-3-(7-methoxyindol-3-yl)-2-propylamino]-(1R)-1-(3-chlorophenyl)ethanol], in assay [1], the EC50 is 0.0036 µM and the Emax is 35%. Moreover, in assay [2], the midpoint of the response, the EC50, lay at 0.00036 µM and the Emax worked out at 89%.

Consider `Cc1ccc2c(CC(C)NCC(O)c3cccc(Cl)c3)c[nH]c2c1` (centres unmarked) [Example 5], for which the EC50 in assay [1] was determined as 0.033 µM; in assay [2] (setting [4]) it was 0.012 µM. Further, the figures for the Emax in assay [1] and in assay [2] were 41% and 95%, respectively. Further, the ED25 in assay [3] (po) stood at 4.5 mg/kg.

By EC50 is commonly meant the concentration that produces a half-maximal response.
